The subject of one data set is HBeAg. Nature of the data set: Inhibition of HBeAg secretion (ELISA) in HepG2.2.15 cells. It is filed as cell-based, hepatitis B virus (HBV). The conditions noted are these: for inhibition of HBV in vitro assay: in vitro assay (Table S1); for HBeAg IC50: ELISA, nine day treatment, mean ± S.D. (n = 3), '-' = inhibition ratio less than 50% in the test concentration range; for IC50: Hepatitis B virus, HepG2.2.15, 216 h, read-out: HBeAg IC50; for HBeAg SI: SI (selectivity index) = CC50/IC50. As for the experimental part:
HepG2.2.15 cells were kindly provided by the Chinese Academy of Medical Sciences (Beijing, China), derived from human hepatoma cell line G2. […] The compounds were diluted to the desired concentrations in culture medium. […] Every three days in a nine day period, supernatant of each well was replaced with compound-containing fresh medium.
The levels of HBeAg and HBsAg in the supernatant of the cells were measured using ELISA assay following the manufacturer’s protocol (Shanghai Kehua Bio-engineering Co., Ltd., Shanghai, China).
Background: In an ELISA, binding on a coated surface is turned into a signal by an enzyme label.

A short description of data set [1]: Cytotoxicity by MTT assay in HepG2.2.15 cells. It is filed as cell-based. The conditions noted are these: human, 50% cytotoxicity concentration in HepG 2.2.15 cells, mean ± S.D. (n = 3). As for the experimental part:
(§1) HepG2.2.15 cells were kindly provided by the Chinese Academy of Medical Sciences (Beijing, China), derived from human hepatoma cell line G2. These cells were cultured in Dulbecco’s Modified Eagle’s Medium (DMEM), supplemented with 10% fetal bovine serum (FBS), 1.5 g/L of sodium bicarbonate, 10 mL/L of penicillin, and streptomycin, respectively, and 200 mg/L of G418 at 37 °C under 5% carbon dioxide in a 95–98% humidity. The compounds were diluted to the desired concentrations in culture medium. Before treated with various concentrations of compounds, cells were seeded at a density of 1 × 10^5 cells/mL in 96-well plates and incubated for 24 h at 37 °C. Every three days in a nine day period, supernatant of each well was replaced with compound-containing fresh medium.
The cytotoxicity activity of the synthesized compounds was determined by MTT assay. After refreshing the supernatant, 20 μL MTT (5 mg/mL) was added to each well, which was further cultured for 4 h at 37 °C. Then the supernatant of each well was carefully removed, formazan crystals were dissolved in […] of DMSO and the absorbance at 450 nm was recorded. Cytotoxicity of these compounds was expressed as the concentration of compound required to kill 50% (CC50) of the HepG2.2.15 cells.

The subject of another data set is HBsAg. Nature of the data set: Inhibition of HBsAg secretion (ELISA) in HepG2.2.15 cells. It is filed as cell-based, hepatitis B virus (HBV). The conditions noted are these: for IC50: Hepatitis B virus, HepG2.2.15, 216 h, read-out: HBsAg IC50; for HBsAg SI: SI (selectivity index) = CC50/IC50. The procedure: as §1
The levels of HBeAg and HBsAg in the supernatant of the cells were measured using ELISA assay following the manufacturer’s protocol (Shanghai Kehua Bio-engineering Co., Ltd., Shanghai, China). The synthesized compounds were expressed as the concentration that achieved 50% inhibition (IC50) to the secretion of HBeAg and HBsAg.

Setting [2] is: HepG2.2.15 cells, result in words.

Where only a bound is given, the exact number is not on record here.

Broadly, the CC50 is the concentration that lowers cell viability or growth by half. Read a low CC50 as greater toxicity to the cells. Broadly, the melting point is the temperature of the solid-liquid transition. A word on the IC50: it is the concentration needed to halve the response being measured.

With `C[C@H](CCC(=O)O)[C@H]1CC[C@H]2[C@@H]3[C@H](O)C[C@@H]4C[C@H](O)CC[C@]4(C)[C@H]3C[C@H](O)[C@]12C` [Cholic acid], the “inhibition of HBV in vitro assay” value in the data set on HBeAg (result in words) is given as “did not exhibit inhibition”.
Turning to `CC(CCC(=O)O)C1CCC2C3C(=O)CC4CC(=NO)CCC4(C)C3CC(=O)C12C` (stereo not drawn) [Compound 0-1, (E)-3-(hydroxyimino)-7,12-dioxolcholanic acid], the melting point lay in the range of 250.4 to 252.4 °C. The “HBeAg IC50” value in the data set on HBeAg (HepG2.2.15 cells) is reported as “- (The inhibition ratio less than 50% in the test concentration range)”. Also, the CC50 at 9 days in data set [1] was > 1000 µM.
`CC(CCC(=O)O)C1CCC2C3C(=O)CC4CC(=NOCc5ccccc5)CCC4(C)C3CC(=O)C12C` (stereo not drawn) [Compound 0-2, (E)-3-((benzyloxy)imino)-7,12-dioxolcholanic acid] returned a melting point of 198.5 to 200.5 °C. Further, in the data set on HBeAg, the 50% inhibitory concentration (IC50) was determined as 119 ± 1.86 µM and the “HBeAg SI” value was found to be 3.95. The same compound displayed a CC50 at 9 days in data set [1] of 470 ± 6.35 µM.
In the case of `CON=C1CCC2(C)C(CC(=O)C3C2CC(=O)C2(C)C(C(C)CCC(=O)O)CCC32)C1` (stereo not drawn) [Compound 0-3, (E)-3-(methoxyimino)-7,12-dioxolcholanic acid], the melting point was in the range of 197.2 to 199.2 °C. Moreover, the “HBeAg IC50” value in the data set on HBeAg (HepG2.2.15 cells) is reported as “- (The inhibition ratio less than 50% in the test concentration range)”. Further, the 50% cytotoxic concentration (CC50) at 9 days in data set [1] is > 1000 µM.
Regarding `C[C@H](CCC(=O)OCc1ccccc1)[C@H]1CC[C@H]2[C@@H]3C(=O)CC4C/C(=N/O)CC[C@]4(C)[C@H]3CC(=O)[C@]12C` (stereo partly drawn) [Compound 2a-1, Benzyl (E)-3-(hydroxyimino)-7,12-dioxocholanoate], the melting point is 199.2 to 201.2 °C. Moreover, in the data set with HBeAg, the half-maximal inhibitory concentration (IC50) came to 229 ± 12.8 µM and the “HBeAg SI” value was 1.65. This compound also had a 50% cytotoxic concentration (CC50) at 9 days in data set [1] of 378 ± 25.3 µM. In the data set on HBsAg, the IC50 is 630 ± 35 µM and the “HBsAg SI” value is given as 0.60.
`C[C@H](CCC(=O)OCc1ccccc1)[C@H]1CC[C@H]2[C@@H]3C(=O)CC4C/C(=N/OCc5ccccc5)CC[C@]4(C)[C@H]3CC(=O)[C@]12C` (stereo partly drawn) [Compound 2a-2, Benzyl (E)-3-((benzyloxy)imino)-7,12-dioxocholanoate]: the melting point fell in the range of 135.3 to 137.3 °C. Further, in the data set with HBeAg, the IC50 amounted to 249 ± 47.6 µM and the “HBeAg SI” value was 0.85. Besides, in data set [1], the CC50 at 9 days is 211 ± 17.1 µM.
For `CO/N=C1\CC[C@@]2(C)[C@H](CC(=O)[C@@H]3[C@@H]2CC(=O)[C@]2(C)[C@@H]([C@H](C)CCC(=O)OCc4ccccc4)CC[C@@H]32)C1` [Compound 2a-3, Benzyl (E)-3-(methoxyimino)-7,12-dioxolcholanoate] the same measures were 132.6 to 134.6 °C, 188 ± 9.51 µM, 0.90 and 169 ± 5.75 µM.
For `C[C@H](CCC(=O)OCc1ccc2c(c1)OCO2)[C@H]1CC[C@H]2[C@@H]3C(=O)CC4C/C(=N/O)CC[C@]4(C)[C@H]3CC(=O)[C@]12C` (stereo partly drawn) [Compound 2b-1, 3,4-Methylenedioxybenzyl (E)-3-(hydroxyimino)-7,12-dioxocholanoate] the same measures were 182.5 to 184.5 °C, 96.6 ± 29 µM, 10.35 and > 1000 µM.
Turning to `C[C@H](CCC(=O)OCc1ccc2c(c1)OCO2)[C@H]1CC[C@H]2[C@@H]3C(=O)CC4C/C(=N/OCc5ccccc5)CC[C@]4(C)[C@H]3CC(=O)[C@]12C` (stereo partly drawn) [Compound 2b-2, 3,4-Methylenedioxybenzyl (E)-3-((benzyloxy)imino)-7,12-dioxocholanoate], the melting point was 124.3 to 126.3 °C. In addition, the “HBeAg IC50” value in the data set on HBeAg (HepG2.2.15 cells) is listed as “- (The inhibition ratio less than 50% in the test concentration range)”. This compound had a CC50 at 9 days in data set [1] of 728 ± 45.2 µM.
In turn, `CO/N=C1\CC[C@@]2(C)C(CC(=O)[C@H]3[C@@H]4CC[C@H]([C@H](C)CCC(=O)OCc5ccc6c(c5)OCO6)[C@@]4(C)C(=O)C[C@@H]32)C1` (stereo partly drawn) [Compound 2b-3, 3,4-Methylenedioxybenzyl (E)-3-(methoxyimino)-7,12-dioxocholanoate] yielded a melting point of 118.7 to 120.7 °C. Further, in the data set on HBeAg, the 50% inhibitory concentration (IC50) came to 49.4 ± 12.8 µM and the “HBeAg SI” value is 11.03. For the same compound, in data set [1], the 50% cytotoxic concentration (CC50) at 9 days worked out at 545 ± 28.9 µM.
On to `C[C@H](CCC(=O)OCc1ccco1)[C@H]1CC[C@H]2[C@@H]3C(=O)CC4C/C(=N/O)CC[C@]4(C)[C@H]3CC(=O)[C@]12C` (stereo partly drawn) [Compound 2c-1, Furan-2-ylmethyl (E)-3-(hydroxyimino)-7,12-dioxocholanoate], for which the melting point is 193.2 to 195.2 °C. Also, in the data set with HBeAg, the IC50 stood at 111 ± 28.3 µM and the “HBeAg SI” value is given as 1.40. In data set [1], this compound returned a CC50 at 9 days of 155 ± 30.8 µM. Also, in the data set on HBsAg, the half-inhibitory concentration (IC50) stood at 300 ± 15.3 µM and the “HBsAg SI” value was determined as 0.52.
For `C[C@H](CCC(=O)OCc1ccco1)[C@H]1CC[C@H]2[C@@H]3C(=O)CC4C/C(=N/OCc5ccccc5)CC[C@]4(C)[C@H]3CC(=O)[C@]12C` (stereo partly drawn) [Compound 2c-2, Furan-2-ylmethyl (E)-3-((benzyloxy)imino)-7,12-dioxocholanoate], the melting point is 131.5 to 133.5 °C. Further, in the data set on HBeAg, the IC50 is 151 ± 32.1 µM and the “HBeAg SI” value is recorded as 0.67. This compound came in with a CC50 at 9 days in data set [1] of 101 ± 10.7 µM. Besides, in the data set on HBsAg, the IC50 came to 464 ± 20.1 µM and the “HBsAg SI” value is on record as 0.22.
Compound `CO/N=C1\CC[C@@]2(C)C(CC(=O)[C@H]3[C@@H]4CC[C@H]([C@H](C)CCC(=O)OCc5ccco5)[C@@]4(C)C(=O)C[C@@H]32)C1` (stereo partly drawn) [Compound 2c-3, Furan-2-ylmethyl (E)-3-(methoxyimino)-7,12-dioxocholanoate] returned a melting point of 122.3 to 124.3 °C. For the same compound, in the data set with HBeAg, the half-inhibitory concentration (IC50) was found to be 105 ± 22.2 µM and the “HBeAg SI” value is listed as 0.86. This compound also had a cytotoxic concentration (CC50) at 9 days in data set [1] of 90.9 ± 15.6 µM. Also, in the data set on HBsAg, the concentration for half-maximal inhibition (IC50) is 181 ± 52.8 µM and the “HBsAg SI” value stood at 0.50.
Consider `C[C@H](CCC(=O)O)[C@H]1CC[C@H]2[C@@H]3C(=O)C[C@@H]4CC(=O)CC[C@]4(C)[C@H]3CC(=O)[C@]12C` [DHCA, Dehydrocholic acid], for which the “HBeAg IC50” value in the data set with HBeAg (HepG2.2.15 cells) is on record as “- (The inhibition ratio less than 50% in the test concentration range)”. Besides, the “activity against the secretion of HBeAg” value in the data set on HBeAg (setting [2]) is on record as “no activity”. For the same compound, in the data set with HBeAg (result in words), the “inhibition of HBV in vitro assay” value was “did not exhibit inhibition”. Also, the half-maximal cytotoxic concentration (CC50) at 9 days in data set [1] was > 1000 µM. The “activity against the secretion of HBsAg” value with HBsAg (setting [2]) was “no activity”.
Regarding `C=C1[C@H](CO)[C@@H](O)C[C@@H]1n1cnc2c(=O)[nH]c(N)nc21` [ETV, Entecavir, reference compound], the IC50 worked out at 247 ± 50 µM in the data set with HBeAg and 161 ± 35.9 µM in the data set on HBsAg. The compound also registered a CC50 at 9 days in data set [1] of 600 ± 23.4 µM. Moreover, the “HBsAg SI” value in the data set with HBsAg is recorded as 3.72.

The values are drawn from PMC7435646, “Design, Synthesis and Bioactive Evaluation of Oxime Derivatives of Dehydrocholic Acid as Anti-Hepatitis B Virus Agents” (Molecules, 2020).
